{"source": "patent US20240245661A1", "about": "“MCT4-TARGETED THERAPEUTICS PREVENTING AKI TO CKD TRANSITION” (Northwestern University, priority 2023, published 2024)", "key": {"[1]": {"target": "T1, MCT4 (Homo sapiens, UniProt O15427)", "T1 sequence (O15427 2-465 limits assumed)": "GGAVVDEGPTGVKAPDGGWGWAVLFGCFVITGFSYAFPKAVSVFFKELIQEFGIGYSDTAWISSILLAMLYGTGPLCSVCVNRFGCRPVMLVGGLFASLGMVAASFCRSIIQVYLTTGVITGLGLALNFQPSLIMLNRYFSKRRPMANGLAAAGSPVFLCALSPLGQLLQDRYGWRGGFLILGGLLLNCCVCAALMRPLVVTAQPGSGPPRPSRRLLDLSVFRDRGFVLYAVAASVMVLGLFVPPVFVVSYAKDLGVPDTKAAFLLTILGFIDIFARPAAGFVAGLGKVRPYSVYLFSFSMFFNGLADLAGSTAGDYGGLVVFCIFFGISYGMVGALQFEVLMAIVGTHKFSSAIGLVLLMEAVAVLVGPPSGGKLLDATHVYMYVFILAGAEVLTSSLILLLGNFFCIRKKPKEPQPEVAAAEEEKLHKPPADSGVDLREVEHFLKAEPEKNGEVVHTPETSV", "T1 sequence (P35613 140-385 partner limits assumed)": "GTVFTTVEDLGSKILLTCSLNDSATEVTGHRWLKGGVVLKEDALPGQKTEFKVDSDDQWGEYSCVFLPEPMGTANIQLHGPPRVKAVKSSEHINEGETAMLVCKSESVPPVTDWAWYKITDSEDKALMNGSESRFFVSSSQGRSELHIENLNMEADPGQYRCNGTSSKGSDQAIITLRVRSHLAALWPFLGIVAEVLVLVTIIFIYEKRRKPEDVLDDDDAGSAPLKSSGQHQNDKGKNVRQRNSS", "settings": "dual MCT1/MCT4 inhibitor; cited from earlier work"}, "[2]": {"tested_on": "PHD^TiEC mice, post-ischemic kidney", "experiment": "Unilateral renal IRI in PHD^TiEC mice, post-ischemic treatment", "format": "in vivo, mouse", "settings": "day 14 post uIRI", "text": "As the primary metabolic response of the post-ischemic endothelium to HIF stabilization in the context of PHD inactivation was increased glycolysis, we next focused on this aspect. While increased lactate generation and efflux via the transporter MCT4 represent the final steps of hypoxia-induced glycolysis, lactate export was recently shown to be among the four key steps controlling glycolytic flux. […] Indeed, immunofluorescence staining confirmed high expression of MCT4 protein in the post-ischemic kidney endothelium of PHD^TiEC (FIG. 10A and FIG. 19). We next sought to investigate whether increased endothelial MCT4 causally contributes to the maladaptive post-ischemic kidney repair observed in the PHD^TiEC mice. To this end, we used syrosingopine, a dual inhibitor of monocarboxylate transporters MCT1 and MCT4 (60-fold higher potency on MCT4), which leads to end-product inhibition of glycolysis. As depicted in FIG. 10B, PHD^TiEC mice were treated with syrosingopine or vehicle starting on day 2 after uIRI and then every other day until day 14 post uIRI. […] MCT4 inhibition diminishes endothelial derived pro-inflammatory responses induced by hypoxia-reoxygenation and IL-1\nMale mice 8-10 weeks of age underwent renal IRI surgery as previously described [Torosyan R, et al. Hypoxic preconditioning protects against ischemic kidney injury through the IDO1/kynurenine pathway. Cell Rep. 2021;36(7):109547]. Anesthesia was induced by IP injection of xylazine (10 mg/kg IP) and ketamine (90-120 mg/kg IP). After making a small midline abdominal incision, the left renal pedicle was occluded by applying a microaneurysm clamp for 25 minutes, while the right kidney was kept intact as an internal control in the unilateral IRI. For bilateral renal IRI, clamps were applied in both renal pedicles for 23 minutes. After the specified time, the clamps were removed, and reperfusion was visually confirmed. The incision site was closed with a 6-0 suture followed by the closure of the skin wound with Michel miniature clips. Throughout the surgical procedure, body temperature was monitored by a rectal probe and controlled with a heating pad at 37° C.\nFor in vivo MCT4 inhibition studies, mice were treated with syrosingopine (7.5 mg/kg) or vehicle starting on day 2 post IRI every other day until dissection on day 14 post IRI.\n(§1) DNA and RNA were extracted and used for genomic or real-time PCR analysis, as previously described [Majmundar A J, et al. Hypoxia-Inducible Factors and the Response to Hypoxic Stress. Mol Cell. 2010; 40(2):294-309]. Real-time PCR was run in the QuantStudio 3 Real-Time PCR system (Applied Biosystems) using SYBR green or TaqMan PCR Master Mix. 18S rRNA was used for normalization.\nFor the histological examination, kidneys were fixed in 10% formalin buffer and paraffin blocks were prepared. To assess tubular damage and interstitial fibrosis, 5-μm transverse plane kidney sections were separately stained with hematoxylin and eosin (H&E) and Picro-Sirius red. […] Fibrosis was assessed by the percentage of Picro-Sirius red^+ve area determined with ImageJ software (http://rsbweb.nih.gov/ij). For tubular injury scoring and quantification of Picro-Sirius red^+ve area ^310 and ^35 random visual fields of corticomedullary region, respectively were analyzed per kidney section for each sample at a magnification of ×200."}, "[3]": {"tested_on": "human primary pulmonary artery endothelial cells (HPAECs)", "experiment": "EC adhesion molecule mRNA in HPAECs activated by hypoxia/reoxygenation and IL-1β", "format": "cell-based", "settings": "5 μM; hypoxia 0.5% O2 18 h, reoxygenation 8 h with IL-1β 1 ng/mL; vs vehicle", "protocol": "(§2) To assess whether MCT4 inhibition acts cell-autonomously in ECs to suppress pro-inflammatory responses, we performed in vitro experiments in which human primary pulmonary artery endothelial cells (HPAECs) were activated by 18 hours exposure to hypoxia (0.5% O2), followed by reoxygenation for 8 hours in the presence of IL-1β treatment (1 ng/mL) (FIG. 11A). To inhibit MCT4, we first used syrosingopine at concentration of 5 μM, which diminished lactate secretion, as indicated by reduction in extracellular lactate levels (FIG. 20A). […] Consistent responses were observed when we used siRNA against MCT4. […] (FIGS. 11D and E).\nas §1\n(§3) Human primary pulmonary artery ECs (HPAECs) were obtained from ATCC and grown on gelatin-coated dishes in Endothelial Cell Basal Medium-2 (Lonza, Catalog #CC-3156) supplemented with EGM-2 SingleQuots Supplements (Lonza, Catalog #CC-4176). MCT4 siRNA was purchased from Qiagen (FlexiTube GeneSolution GS9123 for SLC16A3; Catalog #1027416). […]"}, "[4]": {"tested_on": "THP-1 monocyte adhesion to HPAECs", "experiment": "Endothelial-monocyte cell adhesion assay", "format": "cell-based, human", "settings": "5 μM; hypoxia-reoxygenation and IL-1β; 90 min incubation; vs vehicle", "protocol": "as §2\nas §3, with “#1027416). AllStars negative control siRNA (Qiagen) was used as control siRNA. HiPerFect transfection reagent (Qiagen, Catalog #301707) was used for siRNA transfection experiments.” for “#1027416).”\nEndothelial-monocyte cell adhesion assay. […] After 90 minutes, floating cells were removed, and fluorescent imaging was performed with quantification of the adhered monocytes using Fiji image J."}, "[5]": {"tested_on": "HPAECs", "experiment": "Lactate measurements in HPAEC media", "format": "cell-based, human", "settings": "5 μM, 24 hours; vs vehicle (DMSO)", "protocol": "Lactate measurements. […] Then, cell media were collected, and lactate levels were measured by a Lactate assay kit (Sigma, Catalog #MAK064) following the kit's instruction and protocol."}, "[6]": {"tested_on": "wild type (WT) C57BL/6 mice, post-ischemic (IR) kidney", "experiment": "Unilateral ischemia reperfusion injury (uIRI) model of AKI, post-ischemic treatment, wild type mice", "format": "in vivo, mouse", "settings": "for reduction in fibrosis assessed by Picro Sirius red staining / perfusion of IR kidney (visual): 7.5 mg/kg IP on alternate days from day 2", "protocol": "Wild type (WT) C57BL/6 mice (7 week old) were procured by The Jackson Laboratory and acclimatized for 1 week at standard conditions (23° C.-25° C.; 40-60% humidity with standard diet). Post acclimatization animals were subjected to unilateral ischemia reperfusion (uIRI) model of acute kidney injury (AKI) in mice as described previously. [Rajendran, G et al., 2020, J Am Soc Nephrol 31(3) 501-516] Briefly, adult C57BL/6 mice (8 weeks old) were anesthetized with xylazine (10 mg/kg intraperitoneally) and ketamine (90-120 mg/kg intraperitoneally). Post anesthesia, a small incision in the midline of the abdomen was created and the left renal pedicle was occluded with a microaneurysm clamp, while the right kidney served as an internal control. The abdomen was temporarily partly closed by covering with clean stretch film, and the body temperature was monitored with a rectal probe and maintained at 37° C. using a heating pad. After 25 minutes, the clamps were removed, and reperfusion was visually confirmed. The abdomen was closed with a 6-0 suture and the skin with Michel miniature clips. Post-ischemia reperfusion injury (IRI), mice were randomly divided into two groups: 1. Vehicle treated (WT-Veh) and 2. Syrosingopine treated (WT-Syro). Treatment with syrosingopine or vehicle was initiated on day 2 post-IRI, a time point characterized by established kidney injury. Syrosingopine (Syro) was administered intraperitoneally (7.5 mg/kg body weight, prepared in mixture of DMSO and Tween 80) on alternate days (FIG. 1A). WT-Veh group was treated with mixture of DMSO+Tween 80 (Veh) and served as control group. On days 7 and 14 post-IRI, mice were sacrificed, and kidney damage was examined using standard methods of histopathological and molecular analysis.\nHistopathological Analysis Isolated kidneys were fixed in buffered formalin for 24 h and paraffin blocks were papered using automated tissue processor (Leica Biosystems). 5 μm thick paraffin kidney sections were cut and stained with hematoxylin and eosin, and Picro Sirius red. Images were captured under microscope and were analysed using Image J (National Institutes of Health [NIH]). […] Fibrosis was assessed by the percentage of Picro-Sirius red^+ve area determined with ImageJ software (http://rsbweb.nih.gov/ij). For tubular injury scoring and quantification of Picro-Sirius red^+ve area ^310 and ^35 random visual fields of corticomedullary region, respectively were analyzed per kidney section for each sample at a magnification of ×200.\nRNA and Protein Analyses RNA was isolated using Trizol from contralateral (uninjured right kidney) and IR (post unilateral clamping left kidney) kidneys and used for real-time quantitative PCR (qPCR) analysis of fibrosis and inflammatory related genes. 18S was used to normalize mRNA.\nTotal RNA was extracted using TRIzol reagent (n=4). Bulk RNAseq was performed by Admera Health. RNA integrity was checked with an Agilent Technologies 2100 Bioanalyzer. Poly(A) RNA sequencing libraries were prepared. Paired-ended sequencing was performed on an Illumina sequencing system. FastQC (version v0.11.8) was applied to check the quality of raw reads. Trimmomatic (version v0.38) was applied to cut adaptors and trim low-quality bases with the default setting. STAR Aligner version 2.7.1a was used to align the reads. Picard tools (version 2.20.4) was applied to mark duplicates of mapping. The StringTie version 2.0.4 was used to assemble the RNA-Seq alignments into potential transcripts. The featureCounts (version 1.6.0)/HTSeq was used to count mapped reads for genomic features such as genes, exons, promoter, gene bodies, genomic bins and chromosomal locations. The De-Seq2 (version 1.14.1) was used to do differential analysis."}, "[7]": {"settings": "7.5 mg/kg every other day from day 2, vs vehicle"}, "[8]": {"settings": "day 7 and day 14 post IRI, 7.5 mg/kg IP, vs vehicle, 7.5 mg/kg"}}, "note": "Entries after “also recorded” stand apart in the source; their conditions may differ.", "data": [{"smiles": "CCOC(=O)Oc1c(OC)cc(C(=O)O[C@@H]2C[C@@H]3CN4CCc5c([nH]c6cc(OC)ccc56)[C@H]4C[C@@H]3[C@H](C(=O)OC)[C@H]2OC)cc1OC", "note": "[syrosingopine]", "values": [{"measurement": "higher potency towards MCT4 than MCT1", "setting": "[1]", "value": 60, "unit": "fold"}, {"measurement": "reduction in collagen accumulation (Picro-Sirius red)", "setting": "[2]; [7]", "value": "~51", "unit": "%"}, {"measurement": "reduction in tubular injury scoring", "setting": "[2]; [7]", "value": "~37", "unit": "%"}, {"measurement": "Acta2 mRNA level", "setting": "[2]; vs vehicle treated group", "value": "significantly downregulated"}, {"measurement": "Loxl2 mRNA level", "setting": "[2]; vs vehicle treated group", "value": "significantly downregulated"}, {"measurement": "Tgfb1 mRNA level", "setting": "[2]; vs vehicle treated group", "value": "significantly downregulated"}, {"measurement": "ICAM1 mRNA expression", "setting": "[3]", "value": "significantly suppressed"}, {"measurement": "VCAM1 mRNA expression", "setting": "[3]", "value": "significantly suppressed"}, {"measurement": "reduction of adhesion of monocytes (THP-1 cells) to HPAECs", "setting": "[4]", "value": "~48", "unit": "%"}, {"measurement": "extracellular lactate levels", "setting": "[5]", "value": "reduction"}, {"measurement": "Icam1 mRNA level in IR kidney (qPCR)", "setting": "[6]; [8]", "value": "substantially lower levels; also recorded: significant reduction"}, {"measurement": "Loxl2 mRNA level in IR kidney (qPCR)", "setting": "[6]; [8]", "value": "substantially lower levels; also recorded: significant reduction"}, {"measurement": "Tgfβ1 mRNA level in IR kidney (qPCR)", "setting": "[6]; [8]", "value": "substantially lower levels; also recorded: significant reduction"}, {"measurement": "Vcam1 mRNA level in IR kidney (qPCR)", "setting": "[6]; [8]", "value": "substantially lower levels; also recorded: significant reduction"}, {"measurement": "Picro-Sirius red stained area (fibrosis), image analysis", "setting": "[6]; day 7 and day 14 post IRI, vs vehicle-treated controls", "value": "significantly less staining"}, {"measurement": "tubular injury scoring", "setting": "[6]; day 7 and day 14 post-IRI kidneys, 7.5 mg/kg IP, vs vehicle, 7.5 mg/kg", "value": "less injury; also recorded: reduced tubular damage"}, {"measurement": "genes associated with pro-inflammatory pathways (bulk RNA-seq)", "setting": "[6]; day 7 and day 14 post-IRI kidneys, vs vehicle", "value": "suppression"}, {"measurement": "reduction in fibrosis assessed by Picro Sirius red staining", "setting": "[6]; day 7 post IRI, vs vehicle", "value": 25, "unit": "%"}, {"measurement": "reduction in fibrosis assessed by Picro Sirius red staining", "setting": "[6]; day 14 post IRI, vs vehicle", "value": 62, "unit": "%"}, {"measurement": "perfusion of IR kidney (visual)", "setting": "[6]; day 14 post IRI, vs vehicle, 7.5 mg/kg", "value": "improved perfusion"}, {"measurement": "perfusion of IR kidney (visual)", "setting": "[6]; day 14 post IRI, vs vehicle, listed as Syrosingopine, 7.5 mg/kg", "value": "visually better perfused"}, {"measurement": "genes of metabolic pathways, oxidative phosphorylation and fatty acid metabolism (bulk RNA-seq)", "setting": "[6]; day 14 post-IRI kidneys, vs vehicle", "value": "significantly up-regulated; also recorded: upregulated"}]}]}
